Earlier results on 1 compound are cited in patent US20040214861A1, “Compositions of a cyclooxygenase-2 selective inhibitors and 5-HT1B1D antagonists for the treatment and prevention of migraine” (Pharmacia Corporation, priority 2003, published 2004).

The conditions of the data set: at one and two hours after administration; compared with sumatriptan.

On to `CN1CCC[C@@H]1Cc1c[nH]c2ccc(CCS(=O)(=O)c3ccccc3)cc12` [eletriptan], for which the effectiveness after administration entry was “greater effectiveness at one and two hours after administration than sumatriptan”.
